Results on one compound are retold here after US20100184811A1, “ISONIAZID MEDIATED HEALING OF WOUNDS AND ULCERS” (priority 2006, published 2010).

“Also recorded” adds a separate entry of the source.

Data set [1] is described as follows: Tolerability and body weight in the rat wound model.
Experimental: Rats were anesthetized by intraperitoneal (i.p.) injection of 100 mg/kg ketamine (Parke-Davis, Berlin, Germany) and 15 mg/kg xylazin (Bayer, Leverkusen, Germany). A standardized pedunculated dorsal ischemic skin flap (3 cm×7 cm) was lifted, replaced, and fixed with metal clips. Two full-thickness wounds were made using punch biopsies (8 mm diameter), one in the ischemic flap region and one non-ischemic outside the flap in the neck.
To the control group, comprising 10 rats, 10 ml/kg of sterile isotonic saline was administered. The compounds were masked to the investigators. The first dose was given directly after wounding. Wounds were traced (outer margins) on OpSite* Flexigrid* (Smith & Nephew) 30 minutes after wounding day 0 and after dressing (Hydrosorb, Hartmann) removal and wound cleansing on subsequent days (Table I). On post-wounding day 2, intracutaneous oxygen tensions were measured 1 hour after administration of compounds with Licox® (Integra LifeSciences Corporation) Clark type probe under full anesthesia. The Licox® probe was positioned at the wound edges using a Venflon catheter (FIG. 1).
The test system of a further data set is ischemic wounds. Description: Ischemic cutaneous wound healing in a validated rat model (dorsal ischemic skin flap). The format is in vivo, Male Sprague-Dawley rats. To be noted: 10 mg/kg i.p. b.i.d., 14 days; 8 mm full-thickness wound in ischemic flap; p=0.014. How it is done:
The compounds were masked to the investigators. The first dose was given directly after wounding.
Results are expressed as mean±SD or mean±SEM. Wound healing differences among the two groups were calculated as the area under the wound healing curves (FIG. 2A+B) with correction according to Bonferroni (p=0.035). Licox® results were analyzed by the Wilcoxon test.

Data set [2] relates to non-ischemic cutaneous lesions / non-TB chronic wounds. The settings on record: cited from earlier work.

Take `NNC(=O)c1ccncc1` [Isoniazid, pyridine-4-carbohydrazide]: the “Body weight difference among groups” value in data set [1] (before operation or after 14 days of treatment) was “did not differ significantly”. The “Body weights before operation (Mean ± SD)” value in data set [1] (before operation, n=10) is 360 ± 8 gram. The Rats that died result in data set [1] (group of 10 rats, death 5 days after operation) was “one”. Further, in data set [1] (post operative day 14, 10 mg/kg i.p. b.i.d., n=9), the “Body weights on post-wounding day 14 (Mean ± SD)” value came to 341 ± 12 gram. Further, the “Healing of ischemic wounds compared with the control (area under the wound healing curves)” value in the data set with ischemic wounds is on record as “promoted healing of the ischemic wounds; also recorded: stimulated ischemic wound healing”. Further, in data set [2] (case report, Martyn and Campell (1963)), the “Effect on healing of a variety of non-TB chronic wounds” value was “stimulating effects”. Also, in data set [2] (conclusion of Martyn and Campell (1963)), the “Effect on ischemic tissue” value was “little effect on ischemic tissue”. The “Healing of coincidental non-ischemic cutaneous lesions” value in data set [2] (tuberculosis and non-tuberculosis patients treated with isoniazid (Potter and Taylor, 1969)) is given as “healed”.
